From publication PMC9241943, “LcCCL28-25, Derived from Piscine Chemokine, Exhibits Antimicrobial Activity against Gram-Negative and Gram-Positive Bacteria In Vitro and In Vivo” (Microbiology Spectrum, 2022)
Residues, ends and D or L forms follow the SMILES beside them.

Tests used:
[1] = tested on: S. aureus ATCC 25923 cells; assay: Scanning and transmission electron microscopy; assay type: cell-based, Staphylococcus aureus; details: S. aureus ATCC 25923, 5 μg/mL, 15 min
Experimental: E. coli ATCC 25922 and S. aureus ATCC 25923 cells were cultured and coincubated with or without lcCCL28-25 as described above for fluorescence microscopy.
For scanning electron microscopy (SEM), bacterial cells were fixed with 2.5% glutaraldehyde in PBS (pH 7.35) and attached to 12-mm cover glasses by centrifugation at 75 × g for 6 min using a Cytospin 2 centrifuge (Thermo Fisher Scientific, Schwerte, Germany). Then, cover glasses with attached bacteria were postfixed in 1% aqueous OsO4 for 30 min, dehydrated in a sequence of increasing ethanol concentrations (70%, 80%, and 100%), and critical point dried in a CPD030 (Leica Microsystems, Vienna, Austria). Next, dried samples were mounted on aluminum stubs using conductive carbon tabs, coated with 4 nm of platinum in a CCU-010 sputtering device (Safematic, Bad Ragaz, Switzerland), and imaged by a Supra 50 VP SEM at an acceleration voltage of 2 kV using the in-lens secondary electron detector (Zeiss, Oberkochen, Germany) ([53]).
For transmission electron microscopy (TEM), bacterial cells were obtained by centrifugation after overnight fixation in 2.5% glutaraldehyde (pH 7.35, in PBS) at 4°C. […]

[2] = tested on: P. aeruginosa FRD1 biofilm; assay: Biofilm inhibition assay (crystal violet); assay type: cell-based, Pseudomonas aeruginosa; details: P. aeruginosa FRD1, 6.25 μg/mL (0.5× MIC), 37°C 24 h, triplicate
Experimental: (§1) In vitro static biofilm models have been reported in many studies ([45][–][47]). A Pseudomonas aeruginosa mucoid strain, FRD1, isolated from a cystic fibrosis patient, was used for the biofilm inhibition and eradication assay. The FRD1 strain was shock cultured to logarithmic growth stage at 37°C and 150 × g. After cleaning using PBS and centrifuging thrice, the bacteria were resuspended in MHB medium (with 0.2% glucose) and gradient diluted to an OD600 value of ~0.01.
For the biofilm inhibition assay, 90-μL amounts of bacterial suspensions and 10-μL amounts of increasing concentrations of the peptide were added to a 96-well plate and coincubated at 37°C for 24 h. Then, bacterial biofilms were quantified as follows: (i) planktonic bacteria were removed by washing thrice using PBS, (ii) biofilm bacteria were fixed in 100 μL of 4% paraformaldehyde at room temperature for 15 min and (iii) stained with 100 μL of 0.1% crystal violet for 30 min, (iv) the dye was removed, followed by washing twice using PBS, adding 200 μL of 95% ethanol to each well to dissolve the crystal violet, and finally, (v) absorbance was measured at 590 nm using an EnSpire multimode plate reader (PerkinElmer, Singapore).

[3] = tested on: P. aeruginosa FRD1 biofilm; assay: Biofilm eradication assay (crystal violet); assay type: cell-based, Pseudomonas aeruginosa; details: for biofilm eradication rate: 24-h mature FRD1 biofilm, 2 h
Experimental: as §1
For the eradication assay, biofilms of the FRD1 strain were grown in a 96-well plate. Briefly, 100-μL amounts of the bacterial suspension were plated and incubated at 37°C for 24 h. Then, wells containing the biofilms were washed thrice using PBS. The peptide was serially diluted in MHB medium (with 0.2% glucose) and added to the 96-well plates (100 μL/well). The plates were incubated for 2 h at 37°C. Finally, bacterial biofilms were quantified as described above for the biofilm inhibition assay.

E. coli ATCC 25922 = assay: SYTOX green membrane permeability assay; assay type: cell-based, Escherichia coli; details: E. coli ATCC 25922, 5 μM SYTOX green, read every 1 min
Experimental: The SYTOX green staining assay was performed to assess peptide-associated membrane damage ([47], [52]). E. coli ATCC 25922 and S. aureus ATCC 25923 cells in the mid-logarithmic phase were collected, washed thrice, and resuspended (5 × 10^7 CFU/mL) in buffer B (10 mM Tris-HCl, pH 7.4, at 25°C). The bacterial suspensions were mixed with 5 μM SYTOX green and incubated for 15 min at room temperature in the dark. Then, the mixtures were added to black, clear-bottom 96-well plates at a density of 100 μL/well. After peptide addition, SYTOX green uptake was monitored using an EnSpire multimode plate reader (PerkinElmer, Singapore) with an excitation wavelength of 485 nm and an emission wavelength of 520 nm. Each measurement interval was 1 min, totaling 30 to 60 times. Melittin was used as the positive control, while bovine serum albumin (BSA) was the negative control.

## CSCC[C@H](NC(=O)[C@H](Cc1c[nH]c2ccccc12)NC(=O)[C@H](CCCCN)NC(=O)[C@@H]1CCCN1C(=O)[C@H](Cc1c[nH]cn1)NC(=O)[C@H](C)N)C(=O)N[C@@H](CCC(=O)O)C(=O)N[C@H](C(=O)N[C@H](C(=O)N[C@@H](CCCNC(=N)N)C(=O)N[C@@H](CO)C(=O)N[C@@H](CCCNC(=N)N)C(=O)N[C@@H](CCC(N)=O)C(=O)N[C@@H](CCCNC(=N)N)C(=O)N[C@@H](CCCCN)C(=O)N[C@@H](CCCCN)C(=O)N[C@@H](CCCCN)C(=O)N[C@@H](Cc1c[nH]cn1)C(=O)N[C@@H](CC(N)=O)C(=O)N[C@@H](CCCCN)C(=O)N[C@@H](CCCNC(=N)N)C(=O)N[C@@H](CCCNC(=N)N)C(=O)N[C@@H](C)C(=O)N[C@H](C(=O)N[C@@H](Cc1ccc(O)cc1)C(=O)O)[C@@H](C)O)C(C)C)C(C)C [lcCCL28-25] (H-AHPKWMEVVRSRQRKKKHNKRRATY-OH; N-terminus and C-terminus assumed)
[1]
  membrane structure (TEM): significant alterations in membrane structure
[2]
  reduction of biofilm formation: ~ 64%
[3]; 12.5 μg/mL
  biofilm eradication rate: more than 80%
[3]; 25 μg/mL
  biofilm eradication rate: above 90%
[3]; 24-h mature P. aeruginosa FRD1 biofilm, 2 h treatment, crystal violet
  concentration required to eradicate ~50% of biofilm: 3.13 µg/mL
E. coli ATCC 25922
  SYTOX green fluorescence intensity: did not increase significantly in a short time (20 min)
